Key:
Assay type in all cases: cell-based
[1] = test system: HCV genotype 1a subgenomic replicon; experiment: Anti-Hepatitis C replicon assay, genotype 1a (luciferase); details: Hepatitis C virus; luciferase activity measured 48 hours later; read-out: HCV Genotype 1A Replicon pEC50 (converted)
Protocol: (§1) Compounds were assayed for activity against HCV using the genotype 1a and 1b subgenomic replicon model systems. Stable cell lines bearing the genotype 1a and 1b replicons were used for screening of compounds. Both replicons are bicistonic and contain the firefly luciferase gene. The ET cell line is stably transfected with RNA transcripts harboring a I389luc-ubi-neo/NS3-3′/ET replicon with firefly luciferase-ubiquitin-neomycin phosphotransferase fusion protein and EMCV-IRES driven NS3-5B polyprotein containing the cell culture adaptive mutations (E1202G; T1280I; K1846T) (Krieger at al, 2001 and unpublished). The genotype 1a replicon is a stable cell line licensed from Apath LLC, modified to contain the firefly luciferase gene. The cells were grown in DMEM, supplemented with 10% fetal calf serum, 2 mM Glutamine, Penicillin (100 IU/mL)/Streptomycin (100 μg/mL), 1× nonessential amino acids, and 250-500 μg/mL G418 (“Geneticin”). They were all available through Life Technologies (Bethesda, Md.). The cells were plated at 0.5×10^4 cells/well in 384 well plates containing compounds. The final concentration of compounds ranged between 0.03 pM to 50 μm and the final DMSO concentration of 0.5-1%.
(§2) Luciferase activity was measured 48 hours later by adding a Steady glo (Promega, Madison, Wis.). Percent inhibition of replication data was plotted relative to no compound control. Under the same condition, cytotoxicity of the compounds was determined using cell titer glo (Promega, Madison, Wis.). IC50s were determined from a 10 point dose response curve using 3-4-fold serial dilution for each compound, which spans a concentration range>1000 fold. BioAssay determines the level of inhibition for each compound by normalizing cross-talk corrected plate values against the negative (low or background, cells with no compound present) and positive (high DMSO, no cells) controls to determine Percent Inhibition:
(§3) These normalized values are exported to IC50 where they are plotted against the molar compound concentrations using the standard four parameter logistic equation: […]

[2] = test system: HCV genotype 1b subgenomic replicon; experiment: Anti-Hepatitis C replicon assay, genotype 1b (luciferase); details: Hepatitis C virus; luciferase activity measured 48 hours later; read-out: HCV Genotype 1B Replicon pEC50 (converted)
Protocol: as §1, §2, §3

[3] = test system: ISG56 (Interferon-Stimulated Gene 56) promoter ISRE; experiment: ISG56 luciferase reporter assay in HEK 293 cells; details: Homo sapiens, HEK293; HEK 293 reporter, 24 hours; 100% = small molecule control test compound; read-out: ISG56 (Average Max Response) %
Protocol: Compounds of the present invention were tested against a HEK (Human Embryonic Kidney) 293 cell line that was stably transfected with a firefly luciferase reporter gene under the control of the ISG56 (Interferon-Stimulated Gene 56) promoter ISRE (Interferon-Stimulated Response Element). While the ISRE is in the opposite orientation of the wild type promoter, literature^1 cites that the response elements are pallindromic and function properly in either orientation. ^1Reich, N., Evans, B., Levy, D., Fahey, D., Knight, E., Damell, J. E. (1987) Interferon-induced transcription of a gene encoding a 15-kDa protein depends on an upstream enhancer element. See, Proc. Natl. Acad. Sci. 84, (6394-6398).
In preparation for the assay, test compounds were serially diluted 3-fold in DMSO from a typical top concentration of 5 mM and plated at 0.2 μL in a 384-well, polystyrene, tissue culture treated plate with lid (Greiner Bio-One North America, Inc., Monroe, N.C.) to generate 11-point dose response curves in the assay. Low control wells (0% response) contained 0.2 μL of DMSO alone, and high control wells (100% response) contained 0.2 μL of a small molecule control test compound.
Frozen stocks of the transfected HEK 293 cells were washed and recovered in DMEM I Ham's F-12 media (Invitrogen Corporation, Carlsbad, Calif.) supplemented with 10% v/v qualified Australian fetal bovine serum (FBS) (Invitrogen Corporation, Carlsbad, Calif.), 1× GlutaMAX™ (Invitrogen Corporation, Carlsbad, Calif.), 1×MEM non-essential amino acids (NEAA) (Invitrogen Corporation, Carlsbad, Calif.) and 500 μg/ml Geneticin® (Invitrogen Corporation, Carlsbad, Calif.). The cells were diluted to 500,000 cells/mL in the supplemented DMEM/Ham's F-12 media, and 20 μL of the cell suspension were added to each well of the previously prepared 384-well compound plate, resulting in 10,000 cells/well. The plate, with lid, were placed in a 37° C., 5% CO2 humidified incubator for 24 hours.
Following incubation, the plates were removed and placed on the bench top without lids to equilibrate to room temperature for 30 minutes. Steady-Glo® (Promega Corporation, Madison, Wis.) was prepared according to the manufacturer's instructions, and 10 μL were added to each plate well. After a twenty minute incubation at room temperature, luminescence was read on a ViewLux™ (PerkinElmer Inc., Waltham, Mass.).
The data for dose responses were plotted as % activation versus compound concentration following normalization using the formula 100*((U−C1)/(C2−C1)), where U was the unknown value, C1 was the average of the low (0% response) control wells and C2 was the average of the high (100% response) control wells. Curve fitting was performed with the equation y=A+((B−A)/(1+(10^x/10^C)^D)), where A was the minimum response, B was the maximum response, C was the log(EC50) and D was the Hill slope. The results for each test compound were recorded as pEC50 values (—C in the above equation) and as max response values at a given concentration.

| SMILES | EC50 [1] | EC50 [2] | Emax [3] |
| --- | --- | --- | --- |
| FC(F)(F)c1cc(-c2ccoc2)nc2c1ccc1nc(-c3nnco3)cn12 [Compound 12, 2-[2-(furan-3-yl)-4-(trifluoromethyl)imidazo[1,2-a]1,8-naphthyridin-8-yl]-1,3,4-oxadiazole] | 398 nM | 794 nM | 13.5% |
| Cn1c(-c2nnco2)cc2ccc3c(C(F)(F)F)cc(C(F)(F)F)nc3c21 [Compound 16, 2-[1-methyl-6,8-bis(trifluoromethyl)-1H-pyrrolo[3,2-h]quinolin-2-yl]-1,3,4-oxadiazole] | 251 nM | 1000 nM | 35.5% |
| CC(C)c1cc(C(C)C)c2ccc3nc(-c4nnco4)cn3c2n1 [Compound 30, 2-[2,4-bis(propan-2-yl)imidazo[1,2-a]1,8-naphthyridin-8-yl]-1,3,4-oxadiazole] | 316 nM | 1000 nM |  |
| FC(F)(F)c1cc(-c2cccnc2)nc2c1ccc1nc(-c3nnco3)cn12 [Compound 19, 3-[8-(1,3,4-oxadiazol-2-yl)-4-(trifluoromethyl)imidazo[1,2-a]1,8-naphthyridin-2-yl]pyridine] | 12600 nM | 1580 nM | 9% |
| Cc1c(-c2nnco2)nc2ccc3c(C(F)(F)F)cc(C(F)(F)F)nc3n12 [Compound 9, 2-[9-methyl-2,4-bis(trifluoromethyl)imidazo[1,2-a]1,8-naphthyridin-8-yl]-1,3,4-oxadiazole] | 158 nM | 794 nM | 262% |
| CC(C)c1cc(-c2ccccc2)c2ccc3nc(-c4nnco4)cn3c2n1 [Compound 31, 2-[4-phenyl-2-(propan-2-yl)imidazo[1,2-a]1,8-naphthyridin-8-yl]-1,3,4-oxadiazole] | 398 nM | 1260 nM |  |
| FC(F)(F)c1cc(C(F)(F)F)c2ccc3cc(-c4nnco4)n(Cc4ccccc4)c3c2n1 [Compound 14, 2-[1-benzyl-6,8-bis(trifluoromethyl)-1H-pyrrolo[3,2-h]quinolin-2-yl]-1,3,4-oxadiazole] | 7940 nM | 1000 nM | 10% |
| Cc1cc(C(F)(F)F)c2ccc3nc(-c4nnco4)cn3c2n1 [Compound 7, 2-[2-methyl-4-(trifluoromethyl)imidazo[1,2-a]1,8-naphthyridin-8-yl]-1,3,4-oxadiazole] | 1260 nM | 631 nM |  |
| FC(F)(F)c1cc(C(F)(F)F)c2ccc3nc(-c4nnco4)c(Cl)n3c2n1 [Compound 18, 2-[9-chloro-2,4-bis(trifluoromethyl)imidazo[1,2-a]1,8-naphthyridin-8-yl]-1,3,4-oxadiazole] | 251 nM | 1580 nM | 27% |
| FC(F)(F)c1cc(Cl)nc2c1ccc1nc(-c3nnco3)cn12 [Compound 29, 2-[2-chloro-4-(trifluoromethyl)imidazo[1,2-a]1,8-naphthyridin-8-yl]-1,3,4-oxadiazole] | 6310 nM | 7940 nM | 10% |
| FC(F)(F)c1cc(C(F)(F)F)c2ccc3nc(-c4ncco4)cn3c2n1 [Compound 27, 2-[2,4-bis(trifluoromethyl)imidazo[1,2-a]1,8-naphthyridin-8-yl]-1,3-oxazole] | 2510 nM | 6310 nM | 29% |
| O=C(C1CCC1)n1c(-c2nnco2)cc2ccc3c(C(F)(F)F)cc(C(F)(F)F)nc3c21 [Compound 21, 2-[1-cyclobutanecarbonyl-6,8-bis(trifluoromethyl)-1H-pyrrolo[3,2-h]quinolin-2-yl]-1,3,4-oxadiazole] | 631 nM | 2000 nM | 70% |
| FC(F)(F)c1cc(-c2ccsc2)nc2c1ccc1nc(-c3nnco3)cn12 [Compound 6, 2-[2-(thiophen-3-yl)-4-(trifluoromethyl)imidazo[1,2-a]1,8-naphthyridin-8-yl]-1,3,4-oxadiazole] | 200 nM | 501 nM | 7.75% |
| FC(F)Oc1cc(C(F)(F)F)c2ccc3nc(-c4nnco4)cn3c2n1 [Compound 20, 2-[2-(difluoromethoxy)-4-(trifluoromethyl)imidazo[1,2-a]1,8-naphthyridin-8-yl]-1,3,4-oxadiazole] | 1000 nM | 1580 nM | 13.5% |
| CCOc1cc(C(F)(F)F)c2ccc3nc(-c4nnco4)cn3c2n1 [Compound 10, 2-[2-ethoxy-4-(trifluoromethyl)imidazo[1,2-a]1,8-naphthyridin-8-yl]-1,3,4-oxadiazole] | 1000 nM | 794 nM | 10% |
| CC(=O)n1c(-c2nnco2)cc2ccc3c(C(F)(F)F)cc(C(F)(F)F)nc3c21 [Compound 22, 1-[2-(1,3,4-oxadiazol-2-yl)-6,8-bis(trifluoromethyl)-1H-pyrrolo[3,2-h]quinolin-1-yl]ethan-1-one] | 501 nM | 2000 nM | 60.5% |
| FC(F)(F)c1cc(-c2ccccc2)nc2c1ccc1nc(-c3nnco3)cn12 [Compound 17, 2-[2-phenyl-4-(trifluoromethyl)imidazo[1,2-a]1,8-naphthyridin-8-yl]-1,3,4-oxadiazole] | 501 nM | 1260 nM | 31.5% |
| FC(F)(F)c1cc(C2CC2)nc2c1ccc1nc(-c3nnco3)cn12 [Compound 5, 2[2-cyclopropyl-4-(trifluoromethyl)imidazo[1,2-a]1,8-naphthyridin-8-yl]-1,3,4-oxadiazole] | 100 nM | 398 nM | 151% |
| CC(C)c1cc(Cl)c2ccc3nc(-c4nnco4)cn3c2n1 [Compound 23, 2-[4-chloro-2-(propan-2-yl)imidazo[1,2-a]1,8-naphthyridin-8-yl]-1,3,4-oxadiazole] | 1260 nM | 3160 nM | 110% |
| CC(C)c1cc(C(F)(F)F)c2ccc3nc(-c4nnco4)cn3c2n1 [Compound 3, 2-[2-(propan-2-yl)-4-(trifluoromethyl)imidazo[1,2-a]1,8-naphthyridin-8-yl]-1,3,4-oxadiazole] | 100 nM | 316 nM | 408% |
| FC(F)(F)c1cc(C(F)(F)F)c2ccc3[nH]c(-c4nnco4)cc3c2n1 [Compound 8, 2-[2,4-bis(trifluoromethyl)-7H-pyrrolo[2,3-h]quinolin-8-yl]-1,3,4-oxadiazole] | 631 nM | 631 nM | 2.5% |
| CCc1cc(C(F)(F)F)c2ccc3nc(-c4nnco4)cn3c2n1 [Compound 13, 2-[2-ethyl-4-(trifluoromethyl)imidazo[1,2-a]1,8-naphthyridin-8-yl]-1,3,4-oxadiazole] | 398 nM | 1000 nM | 346% |

Reference: patent US20140249143A1, “Compounds And Methods For Enhancing Innate Immune Responses” (GlaxoSmithKline LLC, priority 2011, published 2014)
